Measurements: patent US5912248A, “Excitatory amino acid receptor antagonists” (Eli Lilly and Company, priority 1996, dated 1999)

System: metabotropic glutamate receptors
Assay: displacement of 1S,3R-ACPD-sensitive [^3 H]glutamate binding to rat brain cell membranes
Conditions: crude membranes of rat forebrain
Method: The binding of [^3 H]glutamate was conducted with crude membranes of rat forebrain as described by Schoepp and True, Neuroscience Lett., 145, 100-104 (1992) and Wright et al., J. Neurochemistry 63, 938-945, 1994.

IC50 | Structure (SMILES) | activity in the binding test (in words)
242 nM | NC1(C(=O)O)CC(Sc2ccccc2)C2C(C(=O)O)C21 (stereo not drawn) [Example 1, 1SR,2RS,4SR,5SR,6SR-2-Amino-4-(phenylthio)bicyclo[3.1.0]hexane-2,6-dicarboxylic acid] | 
 | NC1(C(=O)O)CC(SCc2ccco2)C2C(C(=O)O)C21 (stereo not drawn) [Example 8, 1SR,2RS,4RS,5SR,6SR-2-Amino-4-((2-furanylmethyl)thio)bicyclo[3.1.0]hexane-2,6-dicarboxylic acid] | essentially inactive
